# US9877918B2, “Long-lasting controlled-release liposome composition and method for producing same” (TERUMO KABUSHIKI KAISHA, priority 2011, dated 2018)
# Structures can show the parent of a compound that is named as a salt.
# Experiment: Bupivacaine hydrochloride retention in the administration site after subcutaneous administration
# Type: in vivo
# Conditions: rat, SC 3.5 mg/kg, four hours after the administration
# Method: (6) Concentration of Bupivacaine Hydrochloride in Tissue (mg/mL): Sampled tissue was treated, and, for a supernatant obtained finally by centrifugation, absorbance at 210 nm was determined by high performance liquid chromatography using a UV-visible absorptiometer, to thereby measure the concentration of bupivacaine hydrochloride in the tissue.
# The bupivacaine hydrochloride liposome preparation prepared in Preparation Example 16 and bupivacaine hydrochloride used alone were subjected to a pharmacokinetic test. The liposome preparation and bupivacaine hydrochloride used alone were administered subcutaneously into a back part of a rat in respective doses as set forth in Table 11 while the doses are set as the amount of bupivacaine hydrochloride. After the lapse of 1, 24, 72, 120, and 168 hours from the administration of the bupivacaine hydrochloride liposome composition, and after the lapse of 0.5, 4, and 24 hours from the administration of bupivacaine hydrochloride used alone, a subcutaneous tissue of the back part in the administration site was sampled and subjected to a homogenizing treatment. […]
structure (smiles),measurement,value
"CCCCN1CCCCC1C(=O)Nc1c(C)cccc1C (stereo not shown) [bupivacaine hydrochloride used alone, Bupivacaine Hydrochloride]",retention rate in the administration site,below 1%
